Patent US20090123419A1, “TREATMENT OF UTERINE CANCER AND OVARIAN CANCER WITH A PARP INHIBITOR ALONE OR IN COMBINATION WITH ANTI-TUMOR AGENTS” (BiPar Sciences, priority 2007, published 2009)

What was measured:
[1] = tested on: cervical adenocarcinoma Hela cells; assay: BrdU cell proliferation assay in Hela cells; format: cell-based, human; conditions: BA at various concentrations, FIG. 6
Experimental: The effect of BA on the proliferation of cervical adenocarcinoma Hela cells is examined. Cell proliferation is assessed by BrdU assay as described herein.
Hela cell is an immortal cell line used in medical research. The cell line was derived from cervical cancer cells. HeLa S3 is a clonal derivative of the parent HeLa line. The HeLa S3 clone has been very useful in the clonal analysis of mammalian cell populations relating to chromosomal variation, cell nutrition, and plaque-forming ability. HeLa cells have been reported to contain human papilloma virus 18 (HPV-18) sequences. Cells are cultured according to the standard protocol (ATCC) in the art. Briefly: 1. Remove and discard culture medium. 2. […] 3. Add 2.0 to 3.0 ml of Trypsin-EDTA solution to flask and observe cells under an inverted microscope until cell layer is dispersed (usually within 5 to 15 minutes). Cells that are difficult to detach may be placed at 37° C. to facilitate dispersal. 4. Add 6.0 to 8.0 ml of complete growth medium and aspirate cells by gently pipetting. 5. Add appropriate aliquots of the cell suspension to new culture vessels. 6. Incubate cultures at 37° C.
BrdU assay is well known in the art. […] The immune complexes are detected by the subsequent substrate reaction via chemiluminescent detection (based on Cell Proliferation ELISA, BrdU Chemiluminescence Protocol from Roche). […]

[2] = in vivo
Experimental: The protocol has been amended to evaluate BA in combination with chemotherapy in specific tumor types.
BA Dosing: • Twice weekly; i.v. infusion • Standard 3+3 design for BA dose escalation • Dose levels studied: 2.0, 2.8, 4.0, 5.6, 8.0, and up to 11.2 mg/kg
Safety, tolerability and MTD of each combination

[3] = Tissue distribution of BA; format: in vivo
[4] = Stability of solutions and drug product; format: physicochemical
PARP = biological target: T1, PARP (Homo sapiens, UniProt P09874); assay: PARP activity assay in peripheral blood mononuclear cells (PBMCs) from patients; format: in vivo; conditions: for PARP inhibition in PBMCs: after multiple dosing with BA doses of 2.8 mg/kg or higher, FIG. 5, 2.8 mg/kg
T1 construct: endogenous in cells; host or cells: peripheral blood mononuclear cells from patients dosed with BA
Experimental: Whole blood is collected into EDTA vacutainers and human PBMCs are obtained by BD Vacutainer™ CPT™ Cell Preparation kit according to the manufacturer's instructions (BD Vacutainer™, REF 362760). Tumor samples are collected in a sterile container and placed immediately on ice. Within 30 minutes, tumor samples are snap-frozen in liquid nitrogen and stored at −80° C. until homogenized for analysis. The specimen is defrosted on ice and the wet weight is documented. The tissue is homogenized using isotonic buffer [7 mmol/L HEPES, 26 mmol/L KCl, 0.1 mmol/L dextran, 0.4 mmol/L EGTA, 0.5 mmol/L MgCl2, 45 mmol/L sucrose (pH 7.8)]. The homogenate is kept on ice throughout the process, and homogenization is done in 10-second bursts to prevent undue warming of the sample. Unless assayed on the day of homogenization, samples are refrozen to −80° C. and stored at this temperature until analyzed.
Cell preparations are defrosted rapidly at room temperature and washed twice in ice-cold PBS. […] Maximally stimulated PARP activity is measured in replicate samples of 20,000 cells in a reaction mixture containing […] NAD+ and 10 mg/mL oligonucleotide in a reaction buffer of 100 mmol/L Tris-HCl, 120 mmol/L MgCl2 (pH 7.8) in a final volume of […] as described previously (24) at 26° C. in an oscillating water bath. […] Purified PAR standards are loaded onto each membrane (0-25 pmol monomer equivalent) to generate a standard curve and allow quantification. […] Chemiluminesence detected during a 5-minute exposure is measured using a Fuji LAS3000 UV Illuminator (Raytek, Sheffield, United Kingdom) and digitized using the imaging software (Fuji LAS Image version 1.1, Raytek). The acquired image is analyzed using Aida Image Analyzer (version 3.28.001), and results are expressed in LAU/mm2. Three background areas on the exposed blot are measured and the mean of the background signal from the membrane is subtracted from all results. The PAR polymer standard curve is analyzed using an unweighted one-site binding nonlinear regression model and unknowns read off the standard curve so generated. […]

[5] = tested on: human tumor cells including breast, colon, prostate, cervix, lung, and ovarian cancers; assay: In vitro activity of BA against cancer cells; format: cell-based

T1 sequence (P09874 whole entry): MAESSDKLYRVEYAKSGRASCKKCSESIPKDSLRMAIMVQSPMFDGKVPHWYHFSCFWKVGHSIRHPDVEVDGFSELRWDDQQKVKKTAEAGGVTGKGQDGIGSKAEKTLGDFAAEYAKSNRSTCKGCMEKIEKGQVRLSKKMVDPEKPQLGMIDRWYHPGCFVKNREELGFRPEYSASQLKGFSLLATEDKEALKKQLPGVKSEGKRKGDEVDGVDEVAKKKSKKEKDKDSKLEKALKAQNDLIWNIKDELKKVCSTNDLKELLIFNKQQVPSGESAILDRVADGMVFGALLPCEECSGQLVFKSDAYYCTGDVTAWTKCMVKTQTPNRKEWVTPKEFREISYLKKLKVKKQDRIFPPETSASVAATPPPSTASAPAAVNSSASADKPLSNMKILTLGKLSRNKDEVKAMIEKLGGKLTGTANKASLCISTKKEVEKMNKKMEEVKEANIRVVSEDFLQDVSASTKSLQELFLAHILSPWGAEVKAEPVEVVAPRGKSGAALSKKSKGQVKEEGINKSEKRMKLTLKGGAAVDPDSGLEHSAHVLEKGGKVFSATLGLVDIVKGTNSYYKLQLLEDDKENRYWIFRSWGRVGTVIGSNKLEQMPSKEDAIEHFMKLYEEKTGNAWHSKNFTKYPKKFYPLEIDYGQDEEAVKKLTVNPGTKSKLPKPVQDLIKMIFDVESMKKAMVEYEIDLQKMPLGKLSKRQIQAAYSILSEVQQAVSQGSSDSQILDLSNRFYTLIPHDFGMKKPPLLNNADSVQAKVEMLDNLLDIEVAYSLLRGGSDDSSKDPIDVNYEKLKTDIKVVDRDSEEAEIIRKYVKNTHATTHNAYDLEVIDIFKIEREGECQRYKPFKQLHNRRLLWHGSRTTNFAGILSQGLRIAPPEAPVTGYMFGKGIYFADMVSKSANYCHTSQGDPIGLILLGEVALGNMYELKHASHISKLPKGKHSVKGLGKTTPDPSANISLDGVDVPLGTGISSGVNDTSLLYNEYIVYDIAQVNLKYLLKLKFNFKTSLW

SMILES: NC(=O)c1ccc(I)c([N+](=O)[O-])c1 [BA, 4-iodo-3-nitrobenzamide]
- proliferation of cervical adenocarcinoma Hela cells [1]: inhibits proliferation
- potentiation of known toxicities or increased frequency of expected toxicities of cytotoxic regimens [2]: no evidence
- blood-brain barrier crossing ([3]; in vivo): known to cross the blood-brain barrier
- tissue distribution ([3]; including the brain and cerebrospinal fluid (CSF)): distributes rapidly and widely into tissues
- stability of BA dosing solution, time to administration after preparation ([4]; ambient (room) temperature, diluted in 0.9% NS or D5W): ≤ 8 h
- permitted storage of BA drug product ([4]; at 25° C., 10 mg/mL in 25% hydroxypropylbetacyclodextrin/10 mM phosphate buffer, pH 7.4): ≤ 24 h
- PARP inhibition in PBMCs (PARP): significant and prolonged PARP inhibition
- PARP inhibition in PBMCs (PARP; listed as 4-iodo-3-nitrobenzamide): PARP inhibition
- biologically relevant dose that elicits significant and sustained PARP inhibition (PARP; at effective preclinical blood concentrations): 2.8 mg/kg
- proliferation of human tumor cells ([5]; in vitro, breast, colon, prostate, cervix, lung, and ovarian cancers): inhibits the proliferation
- activity against cancer cells in vitro ([5]; including drug resistant cell lines): active against a broad range of cancer cells
